Measured values taken from ChEMBL document CHEMBL1148555, “Macrocyclic peptidomimetic inhibitors of beta-secretase (BACE): first X-ray structure of a macrocyclic peptidomimetic-BACE complex” (Bioorg Med Chem Lett, 2006).

Columns and labels:
Beta-secretase 1 = Beta-secretase 1 (Homo sapiens, UniProt P56817); assay: Inhibition of recombinant human BACE1 in FRET assay
[1] = Inhibition of Abeta peptide production in HEK293 cells overexpressing APP751swe; format: functional, cell-based; details: Homo sapiens

Beta-secretase 1, sequence (P56817 whole entry): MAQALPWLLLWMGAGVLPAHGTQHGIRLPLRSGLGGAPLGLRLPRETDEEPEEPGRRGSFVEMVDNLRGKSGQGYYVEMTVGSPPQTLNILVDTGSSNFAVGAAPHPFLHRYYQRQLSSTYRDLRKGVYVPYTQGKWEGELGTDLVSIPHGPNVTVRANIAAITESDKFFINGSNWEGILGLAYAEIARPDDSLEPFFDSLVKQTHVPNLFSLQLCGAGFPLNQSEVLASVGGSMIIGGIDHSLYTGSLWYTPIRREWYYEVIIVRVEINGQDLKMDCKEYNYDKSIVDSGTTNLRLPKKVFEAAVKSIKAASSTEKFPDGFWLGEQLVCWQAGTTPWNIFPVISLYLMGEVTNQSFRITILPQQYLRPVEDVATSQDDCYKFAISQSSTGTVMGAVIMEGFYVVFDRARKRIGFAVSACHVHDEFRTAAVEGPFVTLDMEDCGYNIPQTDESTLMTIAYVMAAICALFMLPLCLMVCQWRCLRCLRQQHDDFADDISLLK

CC(C)[C@H](NC(=O)CC[C@H](O)[C@@H]1CCCCCC[C@H](NC(=O)OC(C)(C)C)C(=O)N[C@@H](C)C(=O)N1)C(=O)NCc1ccccc1
IC50 (Beta-secretase 1): 9.7 µM
IC50 [1]: > 100 µM

CC(C)[C@H](NC(=O)OC(C)(C)C)C(=O)N[C@@H](C)C(=O)N[C@@H](Cc1ccccc1)[C@@H](O)C[C@@H](C)C(=O)N[C@H](C(=O)NCc1ccncc1)C(C)C
IC50 [1]: 2.83 µM
